Holding throughout (test): MIC, standard agar-dilution assay
Holding throughout (type): cell-based

Experiment [1] relates to Staphylococcus aureus V41. Conditions: Staphylococcus aureus. From the text: (§1) In addition to excellent in vitro activity against erythromycin-sensitive bacteria, several members of this new series have shown in vitro activity against erythromycin-resistant strains. These include strains which are inducibly-resistant to erythromycin (S. aureus V41 and X400 and S. epidermidis EPI1) and even strains which are constitutively-resistant (S. epidermidis 270).

Experiment [2] deals with Staphylococcus aureus X400. The following applies: Staphylococcus aureus.
Source text: as §1

Experiment [3] has as its system Staphylococcus epidermidis 270. The following applies: Staphylococcus epidermidis, 270; Table IV; constitutively erythromycin-resistant; read-out: minimal inhibitory concentration (MIC).
Source text: as §1

A further experiment relates to Escherichia coli EC14. The following applies: Escherichia coli, EC14, agar dilution, read-out: minimal inhibitory concentration (MIC). In general terms: In agar dilution the substance is mixed into plates at graded concentrations.
In experiment [4] the test system is Klebsiella pneumoniae X68. The following applies: Klebsiella pneumoniae, X68, agar dilution, read-out: minimal inhibitory concentration (MIC).
Experiment [5] concerns Streptococcus sp. group D 2041. Conditions: Streptococcus, read-out: minimal inhibitory concentration (MIC).
Experiment [6] relates to Staphylococcus aureus X1.1. Conditions: Staphylococcus aureus, X1.1, read-out: minimal inhibitory concentration (MIC).
The subject of experiment [7] is Streptococcus sp. group D X66. Conditions: Streptococcus, read-out: minimal inhibitory concentration (MIC).
The test system of experiment [8] is Staphylococcus epidermidis 222. Conditions: Staphylococcus epidermidis, 222, read-out: minimal inhibitory concentration (MIC).
The mark [9] stands for this setting: V41, Table IV, penicillin-resistant strain, inducibly erythromycin-resistant, read-out: minimal inhibitory concentration (MIC).
[10] abbreviates: X400, Table IV, methicillin-resistant strain, inducibly erythromycin-resistant, read-out: minimal inhibitory concentration (MIC).

Values after ≈ are worked out from the molar mass of the structure shown. Read-outs that look alike come from different tables or passages of the source. Where only a bound is given, the exact number is not on record here.

For the molecule `CC[C@H]1OC(=O)[C@H](C)[C@@H](O[C@H]2C[C@@](C)(OC)[C@@H](O)[C@H](C)O2)[C@H](C)[C@@H](O[C@@H]2O[C@H](C)C[C@H](N(C)C)[C@H]2O)[C@](C)(O)C[C@@H](C)[C@H](NCCCCCO)[C@H](C)[C@@H](O)[C@]1(C)O` [Compound 21, 9-Deoxo-9-[(5-hydroxypentyl)amino]erythromycin], the MIC in experiment [1] (setting [9]), in experiment [2] (setting [10]) and in [3] was above 128 µg/mL in each case.

Take `CCN[C@@H]1[C@H](C)[C@@H](O)[C@](C)(O)[C@@H](CC)OC(=O)[C@H](C)[C@@H](O[C@H]2C[C@@](C)(OC)[C@@H](O)[C@H](C)O2)[C@H](C)[C@@H](O[C@@H]2O[C@H](C)C[C@H](N(C)C)[C@H]2O)[C@](C)(O)C[C@H]1C` [Compound 2, (9S)-9-Deoxo-9-(ethylamino)erythromycin]: the MIC in [1] (setting [9]), in [2] (setting [10]) and in [3] was above 128 µg/mL each time.

As for `CC[C@H]1OC(=O)[C@H](C)[C@@H](O[C@H]2C[C@@](C)(OC)[C@@H](O)[C@H](C)O2)[C@H](C)[C@@H](O[C@@H]2O[C@H](C)C[C@H](N(C)C)[C@H]2O)[C@](C)(O)C[C@@H](C)[C@H](NCC2CC=CCC2)[C@H](C)[C@@H](O)[C@]1(C)O` (some centres unmarked) [Compound 15, 9-Deoxo-9-[(1-cyclohex-4-enylmethyl)amino]erythromycin], the MIC in experiment [1] (setting [9]), in experiment [2] (setting [10]) and in experiment [3] was above 128 µg/mL in each case.

With `CCCN[C@@H]1[C@H](C)[C@@H](O)[C@](C)(O)[C@@H](CC)OC(=O)[C@H](C)[C@@H](O[C@H]2C[C@@](C)(OC)[C@@H](O)[C@H](C)O2)[C@H](C)[C@@H](O[C@@H]2O[C@H](C)C[C@H](N(C)C)[C@H]2O)[C@](C)(O)C[C@H]1C` [Compound 3, 9-Deoxo-9-(n-propylamino)erythromycin], the MIC in experiment [1] (setting [9]), in [2] (setting [10]) and in experiment [3] was above 128 µg/mL throughout.

As to `CC[C@H]1OC(=O)[C@H](C)[C@@H](O[C@H]2C[C@@](C)(OC)[C@@H](O)[C@H](C)O2)[C@H](C)[C@@H](O[C@@H]2O[C@H](C)C[C@H](N(C)C)[C@H]2O)[C@](C)(O)C[C@@H](C)[C@H](NCC(C)(C)CO)[C@H](C)[C@@H](O)[C@]1(C)O` [Compound 22, 9-Deoxo-9-[(3-hydroxy-2,2-dimethylpropyl)amino]erythromycin], the MIC in [1] (setting [9]), in experiment [2] (setting [10]) and in experiment [3] was above 128 µg/mL each time.

For `CC[C@H]1OC(=O)[C@H](C)[C@@H](O[C@H]2C[C@@](C)(OC)[C@@H](O)[C@H](C)O2)[C@H](C)[C@@H](O[C@@H]2O[C@H](C)C[C@H](N(C)C)[C@H]2O)[C@](C)(O)C[C@@H](C)[C@H](NCCOCCOC)[C@H](C)[C@@H](O)[C@]1(C)O` [Compound 25, 9-Deoxo-9-[[2-(2-methoxyethoxy)ethyl]amino]erythromycin], the MIC in [1] (setting [9]), in [2] (setting [10]) and in experiment [3] was above 128 µg/mL throughout.

Regarding `CC[C@H]1OC(=O)[C@H](C)[C@@H](O[C@H]2C[C@@](C)(OC)[C@@H](O)[C@H](C)O2)[C@H](C)[C@@H](O[C@@H]2O[C@H](C)C[C@H](N(C)C)[C@H]2O)[C@](C)(O)C[C@@H](C)[C@H]2[C@H](C)[C@@H](OCN2Cc2ccccc2)[C@]1(C)O` [Compound 62, 9-Deoxo-9-[(benzyl)amino]-9,11-(N,O)-cyclic Methylene Adduct of Erythromycin], the MIC (in the experiment on Escherichia coli EC14 (Table V); in experiment [4] (Table V)) was above 128 µg/mL in each case.

Regarding `CC[C@H]1OC(=O)[C@H](C)[C@@H](O[C@H]2C[C@@](C)(OC)[C@@H](O)[C@H](C)O2)[C@H](C)[C@@H](O[C@@H]2O[C@H](C)C[C@H](N(C)C)[C@H]2O)[C@](C)(O)C[C@@H](C)[C@H](NCC#Cc2ccccc2)[C@H](C)[C@@H](O)[C@]1(C)O` [Compound 18, 9-Deoxo-9-[(3-phenyl-2-propynyl)amino]erythromycin], the MIC in experiment [5] was 1 µg/mL (≈ 1.18 µM); in the experiment with Escherichia coli EC14 (Table IV) it was above 128 µg/mL; in experiment [4] (Table IV), above 128 µg/mL; in experiment [6], 1 µg/mL (≈ 1.18 µM); in experiment [7] it was 0.25 µg/mL (≈ 0.294 µM); in experiment [8], 0.5 µg/mL (≈ 0.589 µM).

Regarding `CC[C@H]1OC(=O)[C@H](C)[C@@H](O[C@H]2C[C@@](C)(OC)[C@@H](O)[C@H](C)O2)[C@H](C)[C@@H](O[C@@H]2O[C@H](C)C[C@H](N(C)C)[C@H]2O)[C@](C)(O)C[C@@H](C)[C@H]2[C@H](C)[C@@H](OCN2C(C)C)[C@]1(C)O` [Compound 58, 9-Deoxo-9-[isopropylamino]-9,11-(N,O)-cyclic Methylene Adduct of Erythromycin], the MIC was above 128 µg/mL in experiment [1] (V41, read-out: minimal inhibitory concentration (MIC)) and above 128 µg/mL in [2] (X400, read-out: minimal inhibitory concentration (MIC)).

As to `CCCCCCCN[C@@H]1[C@H](C)[C@@H](O)[C@](C)(O)[C@@H](CC)OC(=O)[C@H](C)[C@@H](O[C@H]2C[C@@](C)(OC)[C@@H](O)[C@H](C)O2)[C@H](C)[C@@H](O[C@@H]2O[C@H](C)C[C@H](N(C)C)[C@H]2O)[C@](C)(O)C[C@H]1C` [Compound 7, 9-Deoxo-9-(n-heptylamino)erythromycin], the MIC in experiment [4] (Table IV), in [1] (setting [9]), in experiment [2] (setting [10]) and in [3] was above 128 µg/mL each time.

As to `CC[C@H]1OC(=O)[C@H](C)[C@@H](O[C@H]2C[C@@](C)(OC)[C@@H](O)[C@H](C)O2)[C@H](C)[C@@H](O[C@@H]2O[C@H](C)C[C@H](N(C)C)[C@H]2O)[C@](C)(O)C[C@@H](C)[C@H](NCCC(C)C)[C@H](C)[C@@H](O)[C@]1(C)O` [Compound 11, 9-Deoxo-9-[(3-methylbutyl)amino]erythromycin], the MIC in experiment [1] (setting [9]), in [2] (setting [10]) and in experiment [3] was above 128 µg/mL throughout.

As for `CCCCCCCCN[C@@H]1[C@H](C)[C@@H](O)[C@](C)(O)[C@@H](CC)OC(=O)[C@H](C)[C@@H](O[C@H]2C[C@@](C)(OC)[C@@H](O)[C@H](C)O2)[C@H](C)[C@@H](O[C@@H]2O[C@H](C)C[C@H](N(C)C)[C@H]2O)[C@](C)(O)C[C@H]1C` [Compound 8, 9-Deoxo-9-(n-octylamino)erythromycin], the MIC (in the experiment with Escherichia coli EC14 (Table IV); in [4] (Table IV)) was above 128 µg/mL throughout.

In the case of `CCC(CC)CN[C@@H]1[C@H](C)[C@@H](O)[C@](C)(O)[C@@H](CC)OC(=O)[C@H](C)[C@@H](O[C@H]2C[C@@](C)(OC)[C@@H](O)[C@H](C)O2)[C@H](C)[C@@H](O[C@@H]2O[C@H](C)C[C@H](N(C)C)[C@H]2O)[C@](C)(O)C[C@H]1C` [Compound 12, 9-Deoxo-9-[(2-ethylbutyl)amino]erythromycin], the MIC in [3] is above 128 µg/mL.

As to `CCCCCCN[C@@H]1[C@H](C)[C@@H](O)[C@](C)(O)[C@@H](CC)OC(=O)[C@H](C)[C@@H](O[C@H]2C[C@@](C)(OC)[C@@H](O)[C@H](C)O2)[C@H](C)[C@@H](O[C@@H]2O[C@H](C)C[C@H](N(C)C)[C@H]2O)[C@](C)(O)C[C@H]1C` [Compound 6, 9-Deoxo-9-(n-hexylamino)erythromycin], the MIC in [1] (setting [9]), in experiment [2] (setting [10]) and in experiment [3] was above 128 µg/mL each time.

The record behind these values is patent US5110800A, “Derivatives of erythromycylamine” (Eli Lilly and Company, priority 1989, dated 1992).
